# Laboratory results reported in USRE46718E1, “Compositions comprising Lactobacillus plantarum strains in combination with tannin and new Lactobacillus plantarum strains” (Probi AB, priority 2003, dated 2018).
# Tests used:
# [1] = Screening for tannase activity (breakdown of methylgallate, Osawa and Walsh); assay type: biochemical; design: key to Tannase activity (positive or negative): +: Positive tannase activity is shown as a green to brown coloration of free gallic acid in the cell-suspension after prolonged exposure to oxygen in an alkaline condition; conditions: for Tannase activity (positive or negative): 24 h incubation with methylgallate at 37° C., visual colour; for Quantitative tannase activity (A440/A620): ratio of A440 after 24 h incubation with methylgallate and A620 of cell-suspension at start; for Tannase activity, in words: where comparative, versus Lactobacillus plantarum 299v
# Procedure: The applied method to detect tannase activity has earlier been described by Osawa and Walsh (1993). The detecting principle is that the breakdown of the tannin, methylgallate, is measured by the following procedure:
# The test bacterium is cultured anaerobically on MRSagar (Merck, Darmstadt, Germany) for 2 d at 37° C. and then the cells are harvested and suspended in 5 ml 0.9% (w/v) NaCl. The cell-suspension is centrifuged and the cells re-suspended in 10 ml 0.9% NaCl and the absorbance is measured at 620 nm (0.9% NaCl solution as standard). The cell-suspension is diluted until the absorbance is between 0.1 and 0.6 (spectrophotometer, Pharmacia LKB, Novaspec II). After centrifugation, the cells are re-suspended in 1 ml methylgallate-buffer (3.7 g/l methylgallate [Aldrich Chemical Company, Inc., Milwaukee, Wis., USA], 4.5 g/l NaH2PO4, pH=5.0 [sterile filtered]) and the tube is incubated at 37° C. for 24 h. One ml of NaHCO3-buffer (42 g NaHCO3 per litre, pH=8.6) is added and the solution is incubated for 1 h at room temperature, before measurement of the absorbance at 440 nm (NaHCO3-buffer as standard). The colour of the suspension is measured by visual determination.
# The colour should be brown or green to be graded as positive tannase activity. A quantitative value of the tannase activity was obtained by the ratio between the absorbance of the cell-suspension (A620; amount of cells) at the start of the incubation with methylgallate versus the absorbance after the 24 h incubation with methylgallate (A440; coloration of free gallic acids after exposure to oxygen in an alkaline condition).
# [2] = system: human colonic carcinoma cell-line HT-29; assay: Adhesion to HT-29 cells; assay type: cell-based; conditions: for Adhesion to HT-29 cells, in salt solution: HBSS, 30 minutes, mean of at least 40 cells; for Capacity to adhere to human colonic mucosa cells, in words: compared with Lactobacillus plantarum 299v
# Procedure: In total 32 L. plantarum strains isolated from human mucosa were tested as to adherence to intestinal epithelial cells of human colonic carcinoma cell-line HT-29 with a mannose-specific binding (method as described by Wold, A, et al, Infection and Immunity, October 1988, p. 2531-2537). Cells of the human adenocarcinoma cell line HT-29 were cultured in Eagle's medium supplemented with 10% fetal calf serum, 2 mM L-glutamine and 50 ig/ml of gentamicin (Sigma Chemical Co., Saint Louis, Mo., USA). A few days after the cells had reached confluence they were detached with EDTA-containing buffer (0.54 mM), washed and suspended in Hank's balanced salt solution (HBSS) at 5×10^6/ml. The bacteria were harvested, washed and suspended in HBSS at 5×10^9/ml (2× an optical density of 1.5 at 597 nm). Cells, bacteria and HBSS were mixed in the ratio 1:1:3 and incubated with end-over-end rotation for 30 minutes at 4EC. The cells were washed once with ice cold PBS and fixed with neutral buffered formalin (Histofix, Histolab, Götebrog, Sweden). The number of bacteria attached to each of at least 40 cells was determined using interference contrast microscopy (500× magnification, Nicon Optophot, with interference contrast equipment, Bergström Instruments, Göteborg, Sweden) and the mean number of bacteria per cell was calculated.
# [3] = system: ischemia/reperfusion injury; assay: Lipid peroxidation after ischemia/reperfusion injury in mice (LPO-586 colorimetric assay); assay type: in vivo, Balb/C mice
# From the text: Fifteen Balb/C mice were divided into five groups (3 mice per group) and fed different combinations of normal food, rose hip powder (rich in tannins) and the tannase positive strain Lactobacillus plantarum 299v. The constituents were mixed with some water to get a mushy consistency. Groups 1 and 2 were given normal mouse food, Group 3 got the normal food supplemented with rose hip powder (1.6 g per day), Group 4 got normal food supplemented with L. plantarum 299v (10^10 bacteria per dose) and Group 5 got normal food supplemented with both the rose hip powder and L. plantarum 299v. The mice were fed once a day for 6-8 days before inducing an ischemia/reperfusion injury. The injury was done according to the following dissection protocol: Mice were given 0.15 ml of Ketamine/Xylazine solution (7.85 mg/ml and 2.57 mg/ml, respectively) subcutaneously for anesthesia. […] 1.0 ml PBS was injected into the peritoneal cavity for fluid resuscitation. […]
# Lipid peroxidation is a well-established mechanism of cellular injury and is used as an indicator of oxidative stress in cells and tissues. […] LPO-586™ is a colorimetric assay designed to quantify MDA and is based on the reaction of a chromogenic reagent, N-methyl-2-phenylindole with MDA at 45° C. One molecule of MDA reacts with two molecules of N-methyl-2-phenylindole to yield a stable chromophore with maximal absorbance at 586 nm.
# [4] = system: Bacterial flora in caecum; assay: Bacterial flora in caecum after ischemia/reperfusion injury in mice (viable count); assay type: in vivo, Balb/C mice; conditions: caecum stool after ischemia/reperfusion
# From the text: Fifteen Balb/C mice were divided into five groups (3 mice per group) and fed different combinations of normal food, rose hip powder (rich in tannins) and the tannase positive strain Lactobacillus plantarum 299v. The constituents were mixed with some water to get a mushy consistency. Groups 1 and 2 were given normal mouse food, Group 3 got the normal food supplemented with rose hip powder (1.6 g per day), Group 4 got normal food supplemented with L. plantarum 299v (10^10 bacteria per dose) and Group 5 got normal food supplemented with both the rose hip powder and L. plantarum 299v. The mice were fed once a day for 6-8 days before inducing an ischemia/reperfusion injury. The injury was done according to the following dissection protocol: Mice were given 0.15 ml of Ketamine/Xylazine solution (7.85 mg/ml and 2.57 mg/ml, respectively) subcutaneously for anesthesia. […] 1.0 ml PBS was injected into the peritoneal cavity for fluid resuscitation. […] The abdomen was then closed using a running vicryl 3-0 suture. The animal was allowed to awake from anesthesia and was removed from the warming pad and placed back into the cage. After 4 h and 15 min, the animal was given anesthesia again and tissue and stool samples were obtained in the following order and placed in preweighed tubes: liver tissue, ilium mesentery tissue and cecum stool for bacteriological sampling, and cecum and ilium tissue for colorimetric assay for lipid peroxidaton, and cecum and ilium tissue for histological examination. The samples for bacteriological evaluation were weighed and placed in freezing media and frozen immediately at −70° C. Samples for colorimetric assay (LPO586) were rinsed in PBS, weighed, homogenized, aliquoted and then frozen immediately at −70° C.
# Bacteriological evaluation was performed by viable count by anaerobic incubation (BBL Gas Pak Plus, Becton Dickinson and Company, Sparks, Md., USA) on Rogosa-agar (Merck, Darmstadt, Germany) at 37° C. for 3 d, VRBD-agar (Merck, Darmstadt, Germany) at 37° C. for 24 h and Brain heart infusion agar (BHI; Oxoid, Basingstoke, Hampshire, England) at 37° C. for 3 d. Viable count on BHI was also done aerobically.
Substance,Tannase activity (positive or negative) [1],Quantitative tannase activity (A440/A620) [1],"Adhesion to HT-29 cells, in salt solution [2]","Adhesion to HT-29 cells, in presence of methyl-mannoside [2]","MDA (lipid peroxidation), in words ([3]; compared to the positive control (Group 2))","Malondialdehyde (MDA) per g colonic tissue [median-value] ([3]; mice fed once a day for 6-8 days before 30 min ischemia, sampled 4 h 15 min after reperfusion, Control B 6.3, uninjured 4.3)","Median of viable count, Total aerobes ([4]; BHI agar aerobic)","Median of viable count, Total anaerobes ([4]; BHI agar anaerobic)","Median of viable count, Lactobacilli ([4]; Rogosa-agar)","Median of viable count, Enterobacteriaceae ([4]; VRBD-agar)","Tannase activity, in words [1]","Capacity to adhere to human colonic mucosa cells, in words [2]"
"Lactobacillus plantarum 299v, DSM 9843 [Strain 299v]",+,6.2,11.7 number of bacteria per cell,3.4 number of bacteria per cell,decreased the MDA,5.8,4 × 10^9 CFU per a caecal content,3 × 10^9 CFU per a caecal content,2 × 10^9 CFU per a caecal content,3 × 10^3 CFU per a caecal content,,
"Lactobacillus plantarum HEAL 9, DSM 15312",+,6.4,20 number of bacteria per cell,2.1 number of bacteria per cell,,,,,,,higher tannase activity,higher capacity to adhere
"Lactobacillus plantarum HEAL 19, DSM 15313",+,7.4,23 number of bacteria per cell,5.0 number of bacteria per cell,,,,,,,higher tannase activity,higher capacity to adhere
"Lactobacillus plantarum HEAL 99, DSM 15316",+,6.8,20 number of bacteria per cell,2.0 number of bacteria per cell,,,,,,,higher tannase activity,higher capacity to adhere
